Assay results published in ChEMBL document CHEMBL4265897, “Discovery of benzothiazole amides as potent antimycobacterial agents” (Bioorg Med Chem Lett, 2018).
Converted amounts (≈) assume the structure as drawn. The source made the active and inactive calls. No cut-off for these calls is given here.

How the values were obtained:
[1] = test system: Mycobacterium tuberculosis; assay: Antimycobacterial activity against Mycobacterium tuberculosis H37Rv MC2 6206 by CLSI method; assay type: functional
[2] = test system: Mycobacterium intracellulare; assay: Antimycobacterial activity against Mycobacterium intracellulare 1956 by CLSI method; assay type: functional
Mycobacterium avium = assay: Antimycobacterial activity against Mycobacterium avium 101 by CLSI method; assay type: functional
[3] = test system: Mycobacteroides abscessus; assay: Antimycobacterial activity against Mycobacterium abscessus ATCC 19977 by CLSI method; assay type: functional
[4] = test system: Mycobacteroides abscessus; assay: Antimycobacterial activity against Mycobacterium abscessus 103 by CLSI method; assay type: functional
[5] = Oral bioavailability in mouse at 100 mg/kg; assay type: ADME, organism-based; settings: in vivo
[6] = test system: Mycolicibacterium fortuitum; assay: Antimycobacterial activity against Mycobacterium fortuitum 41 by CLSI method; assay type: functional
[7] = Solubility of the compound; assay type: physicochemical
Cytochrome P450 2C8 = biological target: T1, Cytochrome P450 2C8 (Homo sapiens, UniProt P10632); assay: Inhibition of CYP2C8 (unknown origin); assay type: ADME
T1 sequence (P10632 whole entry): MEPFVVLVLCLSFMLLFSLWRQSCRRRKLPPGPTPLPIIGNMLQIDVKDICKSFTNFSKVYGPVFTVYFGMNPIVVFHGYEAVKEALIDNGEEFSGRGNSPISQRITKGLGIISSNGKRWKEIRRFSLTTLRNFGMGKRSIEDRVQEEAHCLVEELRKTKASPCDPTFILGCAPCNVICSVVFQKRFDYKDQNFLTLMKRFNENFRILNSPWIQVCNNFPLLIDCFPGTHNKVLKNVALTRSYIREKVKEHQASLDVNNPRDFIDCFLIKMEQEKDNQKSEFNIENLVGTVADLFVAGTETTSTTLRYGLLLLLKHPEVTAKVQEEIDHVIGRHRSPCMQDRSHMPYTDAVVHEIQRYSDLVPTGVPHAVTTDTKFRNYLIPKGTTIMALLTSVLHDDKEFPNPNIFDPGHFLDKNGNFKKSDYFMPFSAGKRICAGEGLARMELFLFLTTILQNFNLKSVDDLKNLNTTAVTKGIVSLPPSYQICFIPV

[8] = test system: Mycolicibacterium peregrinum; assay: Antimycobacterial activity against Mycobacterium peregrinum ATCC 700686 by CLSI method; assay type: functional
[9] = test system: Mycobacteroides abscessus; assay: Antimycobacterial activity against Mycobacterium abscessus 1 by CLSI method; assay type: functional
[10] = test system: Mycobacteroides abscessus; assay: Antimycobacterial activity against Mycobacterium abscessus 21 by CLSI method; assay type: functional
Cytochrome P450 3A4 [11] = biological target: T2, Cytochrome P450 3A4 (Homo sapiens, UniProt P08684); assay: Inhibition of CYP3A4 (unknown origin) using midazolam as substrate; assay type: ADME
[12] = test system: Mycobacteroides abscessus; assay: Antimycobacterial activity against Mycobacterium abscessus 79 by CLSI method; assay type: functional
Cytochrome P450 2B6 = biological target: T3, Cytochrome P450 2B6 (Homo sapiens, UniProt P20813); assay: Inhibition of CYP2B6 (unknown origin); assay type: ADME
T3 sequence (P20813 whole entry): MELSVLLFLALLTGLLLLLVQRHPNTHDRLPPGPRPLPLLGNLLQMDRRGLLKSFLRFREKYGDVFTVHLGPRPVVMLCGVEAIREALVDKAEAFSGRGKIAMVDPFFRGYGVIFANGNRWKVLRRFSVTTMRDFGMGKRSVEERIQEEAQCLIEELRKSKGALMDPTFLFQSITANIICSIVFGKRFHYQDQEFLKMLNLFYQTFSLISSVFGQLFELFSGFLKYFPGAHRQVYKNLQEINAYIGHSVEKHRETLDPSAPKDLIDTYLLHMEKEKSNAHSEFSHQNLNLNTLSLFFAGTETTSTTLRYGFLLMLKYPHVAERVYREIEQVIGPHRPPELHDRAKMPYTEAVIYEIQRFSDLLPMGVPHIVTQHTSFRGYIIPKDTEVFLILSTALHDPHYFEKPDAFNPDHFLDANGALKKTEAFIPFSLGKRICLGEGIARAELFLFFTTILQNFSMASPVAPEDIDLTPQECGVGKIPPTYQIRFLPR

Cytochrome P450 2C19 = Cytochrome P450 2C19 (Homo sapiens, UniProt P33261); assay: Inhibition of CYP2C19 (unknown origin); assay type: ADME
[13] = Clearance in mouse plasma at 10 mg/kg, iv; assay type: ADME, organism-based
Cytochrome P450 3A4 [14] = biological target: T2, Cytochrome P450 3A4; assay: Inhibition of CYP3A4 (unknown origin) using testosterone as substrate; assay type: ADME
Cytochrome P450 2C9 = Cytochrome P450 2C9 (Homo sapiens, UniProt P11712); assay: Inhibition of CYP2C9 (unknown origin); assay type: ADME
Mycobacteroides chelonae = assay: Antimycobacterial activity against Mycobacterium chelonae 93 by CLSI method; assay type: functional
Cytochrome P450 2D6 = Cytochrome P450 2D6 (Homo sapiens, UniProt P10635); assay: Inhibition of CYP2D6 (unknown origin); assay type: ADME
[15] = test system: Mycobacteroides abscessus; assay: Antimycobacterial activity against Mycobacterium massiliense 119 by CLSI method; assay type: functional, Mycobacterium abscessus subsp. massiliense
RBCs = assay: Hemolytic activity in RBC (unknown origin) at 128 ug/ml; assay type: ADME, cell-based; settings: erythrocyte
[16] = Protein binding in human serum; assay type: ADME, cell-free; settings: read-out: PB
CYP3A4 = CYP3A4 (Homo sapiens, UniProt P08684); assay: Inhibition of CYP3A4 (unknown origin) at 10 uM; assay type: ADME
CYP2B6 = biological target: T4, CYP2B6 (Homo sapiens, UniProt P20813); assay: Inhibition of CYP2B6 (unknown origin) at 10 uM; assay type: ADME
T4 sequence (P20813 whole entry): T3 sequence (P20813 whole entry)

[17] = test system: Mycobacteroides abscessus; assay: Bacteriostatic activity against Mycobacterium abscessus assessed as reduction in viable colony forming unit after 3 days by time-kill assay; assay type: functional, organism-based
[18] = test system: Mycobacteroides abscessus; assay: Antimycobacterial activity against Mycobacterium abscessus assessed as reduction in viable colony forming unit after 5 days by time-kill assay relative to control; assay type: functional

T2 sequence (P08684 whole entry): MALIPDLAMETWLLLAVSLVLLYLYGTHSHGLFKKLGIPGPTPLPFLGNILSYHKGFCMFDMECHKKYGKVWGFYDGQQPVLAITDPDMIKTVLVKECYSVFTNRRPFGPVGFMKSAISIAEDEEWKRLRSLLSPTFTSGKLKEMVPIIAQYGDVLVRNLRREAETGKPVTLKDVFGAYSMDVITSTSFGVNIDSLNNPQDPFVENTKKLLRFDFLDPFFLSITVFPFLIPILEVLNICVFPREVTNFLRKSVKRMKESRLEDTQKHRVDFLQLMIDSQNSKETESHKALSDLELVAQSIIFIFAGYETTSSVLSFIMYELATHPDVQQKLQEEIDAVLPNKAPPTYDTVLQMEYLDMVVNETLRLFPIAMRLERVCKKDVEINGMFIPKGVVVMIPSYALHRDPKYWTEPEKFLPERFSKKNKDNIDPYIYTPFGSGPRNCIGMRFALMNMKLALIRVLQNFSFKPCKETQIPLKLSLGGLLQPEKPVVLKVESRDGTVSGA
Chain of CYP3A4 (P08684 whole entry): as above
Chain of Cytochrome P450 2C9 (P11712 whole entry): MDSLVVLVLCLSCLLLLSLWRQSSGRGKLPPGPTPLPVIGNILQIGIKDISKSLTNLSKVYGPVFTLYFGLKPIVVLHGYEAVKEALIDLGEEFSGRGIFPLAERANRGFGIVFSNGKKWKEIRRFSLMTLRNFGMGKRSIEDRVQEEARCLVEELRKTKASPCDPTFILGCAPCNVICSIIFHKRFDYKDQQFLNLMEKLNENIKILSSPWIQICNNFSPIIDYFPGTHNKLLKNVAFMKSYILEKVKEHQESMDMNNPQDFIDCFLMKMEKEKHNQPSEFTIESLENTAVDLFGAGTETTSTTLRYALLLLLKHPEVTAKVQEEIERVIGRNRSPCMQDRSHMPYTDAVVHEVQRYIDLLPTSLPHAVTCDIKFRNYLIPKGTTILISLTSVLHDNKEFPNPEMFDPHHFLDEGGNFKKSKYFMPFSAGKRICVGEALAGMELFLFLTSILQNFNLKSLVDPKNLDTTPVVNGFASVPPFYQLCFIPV
Chain of Cytochrome P450 2D6 (P10635 whole entry): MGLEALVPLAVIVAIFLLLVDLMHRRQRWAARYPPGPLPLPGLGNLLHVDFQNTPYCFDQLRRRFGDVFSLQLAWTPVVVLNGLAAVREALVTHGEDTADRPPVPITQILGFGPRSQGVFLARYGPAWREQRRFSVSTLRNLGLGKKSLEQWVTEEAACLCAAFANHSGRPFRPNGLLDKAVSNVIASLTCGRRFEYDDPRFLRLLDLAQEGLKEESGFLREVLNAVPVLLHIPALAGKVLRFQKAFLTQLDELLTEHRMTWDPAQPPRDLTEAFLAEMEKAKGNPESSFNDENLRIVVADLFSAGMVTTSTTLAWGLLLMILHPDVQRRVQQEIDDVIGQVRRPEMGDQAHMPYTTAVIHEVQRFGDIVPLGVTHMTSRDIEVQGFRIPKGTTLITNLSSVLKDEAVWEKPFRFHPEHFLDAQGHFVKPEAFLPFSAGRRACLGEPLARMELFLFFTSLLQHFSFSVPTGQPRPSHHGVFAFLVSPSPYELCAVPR
Chain of Cytochrome P450 2C19 (P33261 whole entry): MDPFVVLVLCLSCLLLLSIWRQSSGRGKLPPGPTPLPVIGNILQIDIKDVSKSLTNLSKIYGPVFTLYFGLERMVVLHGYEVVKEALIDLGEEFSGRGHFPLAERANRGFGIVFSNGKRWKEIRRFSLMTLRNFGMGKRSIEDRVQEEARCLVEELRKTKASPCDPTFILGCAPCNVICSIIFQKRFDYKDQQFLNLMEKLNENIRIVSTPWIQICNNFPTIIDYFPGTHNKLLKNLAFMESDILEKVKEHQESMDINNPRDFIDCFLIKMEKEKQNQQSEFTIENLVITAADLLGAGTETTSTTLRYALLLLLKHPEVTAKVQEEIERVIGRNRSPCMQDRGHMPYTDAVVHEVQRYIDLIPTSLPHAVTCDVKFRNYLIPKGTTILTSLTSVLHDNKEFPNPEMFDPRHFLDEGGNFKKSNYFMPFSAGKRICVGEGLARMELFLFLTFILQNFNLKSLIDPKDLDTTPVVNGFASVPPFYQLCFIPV

Row | Structure (SMILES) | MIC [1] | MIC [2] | MIC (Mycobacterium avium) | MIC [3] | MIC [4] | MIC [6] | MIC [8] | MIC [9] | MIC [10] | MIC [12] | MIC (Mycobacteroides chelonae) | MIC [15] | further results
1 | CC12CC3CC(C)(C1)CC(C(=O)Nc1nc4ccccc4s1)(C3)C2 | 4 mg/L (≈ 11.7 µM) | 2 mg/L (≈ 5.87 µM) | 2 mg/L (≈ 5.87 µM) | 1 mg/L (≈ 2.94 µM) |  |  |  |  |  |  |  |  | 
2 | CC1CC(C)CC(C(=O)Nc2nc3ccc(C(F)(F)F)cc3s2)C1 (configuration not stated) | 4 mg/L (≈ 11.2 µM) | > 64 mg/L | > 64 mg/L |  | 0.25 mg/L (≈ 0.701 µM) | 1 mg/L (≈ 2.81 µM) | 0.25 mg/L (≈ 0.701 µM) | 2 mg/L (≈ 5.61 µM) | 1 mg/L (≈ 2.81 µM) | 2 mg/L (≈ 5.61 µM) | 1 mg/L (≈ 2.81 µM) | 0.5 mg/L (≈ 1.4 µM) | bioavailability [5]: 53%; solubility [7]: Insoluble; IC50 (Cytochrome P450 2C8): > 20 µM; IC50 (Cytochrome P450 3A4 [11]): > 20 µM; IC50 (Cytochrome P450 2B6): > 20 µM; IC50 (Cytochrome P450 2C19): > 20 µM; clearance [13]: 1.7 L/h/kg; IC50 (Cytochrome P450 3A4 [14]): > 20 µM; IC50 (Cytochrome P450 2C9): > 20 µM; IC50 (Cytochrome P450 2D6): 1.4 µM; Activity (RBCs): Non-Toxic; fraction unbound [16]: < 0.01
3 | CC12CCCC(C(=O)Nc3nc4ccc(OC(F)(F)F)cc4s3)(CCC1)C2 | 1 mg/L (≈ 2.51 µM) | 2 mg/L (≈ 5.02 µM) | 2 mg/L (≈ 5.02 µM) |  | 0.12 mg/L (≈ 0.301 µM) | 0.5 mg/L (≈ 1.25 µM) | 0.06 mg/L (≈ 0.151 µM) | 0.06 mg/L (≈ 0.151 µM) | 0.06 mg/L (≈ 0.151 µM) | 0.06 mg/L (≈ 0.151 µM) | 0.06 mg/L (≈ 0.151 µM) | 0.06 mg/L (≈ 0.151 µM) | inhibition at 10 µM (CYP3A4): > 50%; inhibition at 10 µM (CYP2B6): > 50%
4 | CC1CC(C(=O)Nc2nc3ccc(SC(F)(F)F)cc3s2)CC(C)(C)C1 (configuration not stated) |  | > 64 mg/L | > 64 mg/L | 16 mg/L (≈ 39.8 µM) | 0.5 mg/L (≈ 1.24 µM) | > 64 mg/L | 8 mg/L (≈ 19.9 µM) | 2 mg/L (≈ 4.97 µM) | 0.5 mg/L (≈ 1.24 µM) | 64 mg/L (≈ 159 µM) | 0.12 mg/L (≈ 0.298 µM) | 0.25 mg/L (≈ 0.621 µM) | 
5 | CC1CC(C(=O)Nc2nc3ccc(N(C)C)cc3s2)CC(C)(C)C1 (configuration not stated) |  | > 64 mg/L | > 64 mg/L | 32 mg/L (≈ 92.6 µM) | 64 mg/L (≈ 185 µM) | 8 mg/L (≈ 23.2 µM) | 2 mg/L (≈ 5.79 µM) | > 64 mg/L | 16 mg/L (≈ 46.3 µM) | 8 mg/L (≈ 23.2 µM) | 2 mg/L (≈ 5.79 µM) | 4 mg/L (≈ 11.6 µM) | 
6 | CC12CC3CC(C)(C1)CC(C(=O)Nc1nc4ccc(OC(F)(F)F)cc4s1)(C3)C2 | 1 mg/L (≈ 2.36 µM) | 1 mg/L (≈ 2.36 µM) | 2 mg/L (≈ 4.71 µM) | 0.25 mg/L (≈ 0.589 µM) | 0.25 mg/L (≈ 0.589 µM) | 0.25 mg/L (≈ 0.589 µM) | 0.12 mg/L (≈ 0.283 µM) | 0.25 mg/L (≈ 0.589 µM) | 0.25 mg/L (≈ 0.589 µM) | 0.25 mg/L (≈ 0.589 µM) | 0.25 mg/L (≈ 0.589 µM) | 0.25 mg/L (≈ 0.589 µM) | Activity [17]: Active; Activity [18]: 2 deltalog10CFU
7 | CC12CCCC(C(=O)Nc3nc4cc(Cl)cc(Cl)c4s3)(CCC1)C2 | ≤ 0.12 mg/L | 2 mg/L (≈ 5.22 µM) | 2 mg/L (≈ 5.22 µM) |  | 0.03 mg/L (≈ 0.0783 µM) | 0.06 mg/L (≈ 0.157 µM) | 0.03 mg/L (≈ 0.0783 µM) | 0.06 mg/L (≈ 0.157 µM) | 0.03 mg/L (≈ 0.0783 µM) | 0.03 mg/L (≈ 0.0783 µM) | 0.03 mg/L (≈ 0.0783 µM) | 0.03 mg/L (≈ 0.0783 µM) | inhibition at 10 µM (CYP3A4): > 50%; inhibition at 10 µM (CYP2B6): > 50%
8 | CC1CC(C(=O)Nc2nc3ccc(Br)cc3s2)CC(C)(C)C1 (configuration not stated) | 2 mg/L (≈ 5.24 µM) | > 64 mg/L | > 64 mg/L |  | 0.25 mg/L (≈ 0.656 µM) | 0.5 mg/L (≈ 1.31 µM) | 0.12 mg/L (≈ 0.315 µM) | 1 mg/L (≈ 2.62 µM) | 0.5 mg/L (≈ 1.31 µM) | 0.5 mg/L (≈ 1.31 µM) | 0.5 mg/L (≈ 1.31 µM) | 0.5 mg/L (≈ 1.31 µM) | bioavailability [5]: 75%; solubility [7]: Insoluble; IC50 (Cytochrome P450 2C8): > 20 µM; IC50 (Cytochrome P450 3A4 [11]): > 20 µM; IC50 (Cytochrome P450 2B6): 12.8 µM; IC50 (Cytochrome P450 2C19): 12.7 µM; clearance [13]: 1.5 L/h/kg; IC50 (Cytochrome P450 3A4 [14]): > 20 µM; IC50 (Cytochrome P450 2C9): > 20 µM; IC50 (Cytochrome P450 2D6): 1.6 µM; Activity (RBCs): Non-Toxic; fraction unbound [16]: < 0.01
